Earlier results as cited in patent US7132452B2, “Topical formulation having effects on alleviating pain/inflammation caused by herpes virus infection” (priority 2003, dated 2006).

| solubility in water | SMILES |
| --- | --- |
| relatively low solubility in water | O=C(O)Cc1ccccc1Nc1c(Cl)cccc1Cl [diclofenac, 2-(2,6-dichloro-anilino)-phenyl-acetic acid] |
| very low solubility in water | O=C(c1ccccc1)c1ccc2n1CCC2C(=O)O (racemic) [ketorolac, (±)-5-benzoyl-2,3-dihydro-1H-pyrrolizine-1-carboxylic acid] |

| SMILES | solubility in water |
| --- | --- |
| O=C(c1ccccc1)c1ccc2n1CCC2C(=O)O (stereo not drawn) [ketorolac tromethamine] | much more water soluble than the free acid form of ketorolac |
